Data taken from patent US4698350A, “1-ethyl-6-fluoro-1,4-dihydro- 7-(2,6-dimethyl-4-pyridinyl)-4-oxo-3-quinolinecarboxylic acid and antibacterial use thereof” (Sterling Drug Inc., priority 1984, dated 1987).
Converted amounts (≈) assume the structure as drawn. Like-named read-outs stand apart in the source and are kept apart here.

How the values were obtained:
B. gingivalis = assay: Agar dilution MIC, anaerobic microorganisms; assay type: cell-based; settings: Porphyromonas gingivalis, 48 h; B. gingivalis; read-out: MIC
Protocol: (§1) 1. Maintenance. Prior to use, all strains were maintained in the lyophilized state. During the study, cultures were examined on blood agar basal medium supplemented with 5.0% (v/v) defibrinated rabbit blood. Culture transfer was accomplished weekly with all cultures being incubated in an anaerobic atmosphere (GasPak jar; BBL).
(§2) 2. Agar Medium. The basal test medium consisted of trypticase soy agar (40 g), yeast extract (1 g), glucose (2 g) and 960 ml of distilled water pH 7.2. [Mashimo et al., J. Clin. Micro. 17, 187-191 (1983)]. Subsequent to sterilization and cooling to 50° C., the medium was supplemented with 4% (v/v) defibrinated rabbit blood and 0.5 μg/ml menadione (Vitamin K3) The agent under evaluation was also added at this time to the concentration desired. Subsequent to pouring of the plates, they were permitted to dry at 4° C. for 24 hr.
(§3) 3. Determination of Agent MIC. The minimal inhibitory concentration (MIC) of the various test agents was determined using an agar dilution technique. Agents and appropriate reference compounds were added to achieve a series of concentrations ranging between 32 μg/ml and 0.007 μg/ml. The inocula were prepared from 96-hr. cultures grown on the maintenance medium. Subsequent to a purity evaluation, colonies were removed and suspended in trypticase soy broth supplemented with 5 μg/ml menadione and 2% lysed rabbit blood filtrate to achieve an OD650 of 0.1 (this corresponded to approximately 10^8 cells/ml). Cultures were inoculated aerobically on the modified trypticase soy blood agar plates by use of a Steer's replicator (which delivers about 10^5 cells per spot). The plates were allowed to dry for a time not exceeding 30 min. and then incubated at 37° C. under an atmosphere of […], 10% H2 and 5% CO2 maintained in an anaerobic chamber (Coy Manufacturing Co.) for 48 hr. The MIC was defined as the lowest concentration completely inhibiting growth.
(§4) Tetracycline stock solutions (1 mg/ml) were made subsequent to dissolution in water. Stock solutions (1 mg/ml) of the remaining test compounds were made subsequent to dissolution in 1/10 N NaOH.

Campylobacter sputorum = assay: Agar dilution MIC, anaerobic microorganisms; assay type: cell-based; settings: 48 h
Protocol: as §1, §2, §3, §4

B. oralis = assay: Agar dilution MIC, anaerobic microorganisms; assay type: cell-based; settings: Hoylesella oralis, 48 h; B. oralis; read-out: MIC
Protocol: as §1, §2, §3, §4

Eikenella corrodens = assay: Agar dilution MIC, anaerobic microorganisms; assay type: cell-based; settings: 48 h, read-out: MIC
Protocol: as §1, §2, §3, §4

A. actinomycetemcomitans = assay: Agar dilution MIC, anaerobic microorganisms; assay type: cell-based; settings: Aggregatibacter actinomycetemcomitans, 48 h; A. actinomycetemcomitans; read-out: MIC
Protocol: as §1, §2, §3, §4

A. viscosus = assay: Agar dilution MIC, anaerobic microorganisms; assay type: cell-based; settings: Actinomyces viscosus, 48 h; A. viscosus; read-out: MIC
Protocol: as §1, §2, §3, §4

Wolinella recta = assay: Agar dilution MIC, anaerobic microorganisms; assay type: cell-based; settings: Campylobacter rectus, 48 h
Protocol: as §1, §2, §3, §4

B. fragilis = assay: Agar dilution MIC, anaerobic microorganisms; assay type: cell-based; settings: Bacteroides fragilis, 48 h; B. fragilis; read-out: MIC
Protocol: as §1, §2, §3, §4

B. intermedius = assay: Agar dilution MIC, anaerobic microorganisms; assay type: cell-based; settings: Prevotella intermedia, 48 h; B. intermedius; read-out: MIC
Protocol: as §1, §2, §3, §4

F. polymorphum = assay: Agar dilution MIC, anaerobic microorganisms; assay type: cell-based; settings: 48 h; F. polymorphum; read-out: MIC
Protocol: as §1, §2, §3, §4

Capnocytophaga suptigena = assay: Agar dilution MIC, anaerobic microorganisms; assay type: cell-based; settings: 48 h; Capnocytophaga suptigena; read-out: MIC
Protocol: as §1, §2, §3, §4

B. melaninogenicus = assay: Agar dilution MIC, anaerobic microorganisms; assay type: cell-based; settings: 48 h; B. melaninogenicus; read-out: MIC
Protocol: as §1, §2, §3, §4

F. nucleatum = assay: Agar dilution MIC, anaerobic microorganisms; assay type: cell-based; settings: Fusobacterium nucleatum, 48 h; F. nucleatum; read-out: MIC
Protocol: as §1, §2, §3, §4

Escherichia coli Vogel = assay: Mouse protection test, E. coli Vogel infection; assay type: in vivo, ICR mice; Escherichia coli; settings: for ED50: Escherichia coli, 168 h, once one-half hour postinfection, read-out: Protective Dose 50% (95% Confidence Limits); for times more efficacious than Win 35,439: E. coli infection
Protocol: ICR mice, female, 18-20 grams each.
Solutions of Win 52,522 and Win 35,439 were prepared by dissolving the appropriate weight of drug in 0.3 to 0.4 ml of 1 N NaOH and then bringing the solutions to the desired volume with distilled water. Methicillin and vancomycin were dissolved directly in distilled water.
The culture was inoculated into 10 ml of Brain Heart Infusion broth and grown statically for 16 hours at 37° C. Fresh tubes of the same broth were inoculated with 0.1 ml portions of the 16 hour broth culture and incubation continued for 5 hours at 37° C. The 5 hour broth culture was finally diluted with saline to provide the test inoculum containing 4.0×10^7 cells/ml.
Mice were inoculated intraperitoneally with 0.5 ml of the bacterial test inoculum.
Mice were medicated subcutaneously or orally once (0.5 ml) one-half hour postinfection.
Deaths were recorded daily for seven days for all tests. Fifty percent protective dose values (PD50's) were calculated using probit analysis [SAS Users Guide: Statistics, 1982 Edition, SAS Institute, Inc., Cary, N.C.].

Compound: CCn1cc(C(=O)O)c(=O)c2cc(F)c(-c3cc(C)nc(C)c3)cc21 [Win 52,522, 1-ethyl-6-fluoro-1,4-dihydro-7-(2,6-dimethyl-4-pyridinyl)-4-oxo-3-quinolinecarboxylic acid]
- MIC (B. gingivalis): 2 µg/mL (≈ 5.88 µM)
- MIC (Campylobacter sputorum): 8 µg/mL (≈ 23.5 µM)
- MIC (B. oralis): 4 µg/mL (≈ 11.8 µM)
- MIC (Eikenella corrodens): 0.5 µg/mL (≈ 1.47 µM)
- MIC (A. actinomycetemcomitans): 0.12 µg/mL (≈ 0.353 µM)
- MIC (A. viscosus): 1 µg/mL (≈ 2.94 µM)
- MIC (Wolinella recta): 0.12 µg/mL (≈ 0.353 µM)
- MIC (B. fragilis): 4 µg/mL (≈ 11.8 µM)
- MIC (B. intermedius): 0.06 µg/mL (≈ 0.176 µM)
- MIC (F. polymorphum): 0.5 µg/mL (≈ 1.47 µM)
- MIC (Capnocytophaga suptigena): 0.06 µg/mL (≈ 0.176 µM)
- MIC (B. melaninogenicus): 1 µg/mL (≈ 2.94 µM)
- MIC (F. nucleatum): 0.5 µg/mL (≈ 1.47 µM)
- Survivors/Total (Escherichia coli Vogel; 1.56 mg/kg po): 0/10
- Survivors/Total (Escherichia coli Vogel; 1.56 mg/kg sc): 0/10
- Survivors/Total (Escherichia coli Vogel; 3.13 mg/kg po): 0/10
- Survivors/Total (Escherichia coli Vogel; 3.13 mg/kg sc): 0/10
- Survivors/Total (Escherichia coli Vogel; 6.25 mg/kg po): 2/10
- Survivors/Total (Escherichia coli Vogel; 6.25 mg/kg sc): 8/10
- Survivors/Total (Escherichia coli Vogel; 12.5 mg/kg po): 9/10
- Survivors/Total (Escherichia coli Vogel; 12.5 mg/kg sc): 10/10
- Survivors/Total (Escherichia coli Vogel; 25 mg/kg po): 10/10
- Survivors/Total (Escherichia coli Vogel; 25 mg/kg sc): 10/10
- ED50 (Escherichia coli Vogel; po, po): 8.2 mg/kg
- ED50 (Escherichia coli Vogel; sc, sc): ~5.2 mg/kg
- times more efficacious than Win 35,439 (Escherichia coli Vogel; p.o.): 2.0 times
- times more efficacious than Win 35,439 (Escherichia coli Vogel; s.c.): 2.6 times
- PD50 values relative to those of Win 35,439 (Escherichia coli Vogel; subcutaneous and oral): approximately one-half

Compound: CCn1cc(C(=O)O)c(=O)c2ccc(-c3cc(C)nc(C)c3)cc21 [Win 35,439, 1-ethyl-1,4-dihydro-7-(2,6-dimethyl-4-pyridinyl)-4-oxo-3-quinolinecarboxylic acid]
- MIC (B. gingivalis): > 10 µg/mL
- MIC (Campylobacter sputorum): > 10 µg/mL
- MIC (B. oralis): > 10 µg/mL
- MIC (Eikenella corrodens): 2 µg/mL (≈ 6.2 µM)
- MIC (A. actinomycetemcomitans): 0.25 µg/mL (≈ 0.776 µM)
- MIC (A. viscosus): 8 µg/mL (≈ 24.8 µM)
- MIC (Wolinella recta): 0.5 µg/mL (≈ 1.55 µM)
- MIC (B. fragilis): > 10 µg/mL
- MIC (B. intermedius): 0.25 µg/mL (≈ 0.776 µM)
- MIC (F. polymorphum): 4 µg/mL (≈ 12.4 µM)
- MIC (Capnocytophaga suptigena): 0.5 µg/mL (≈ 1.55 µM)
- MIC (B. melaninogenicus): 8 µg/mL (≈ 24.8 µM)
- MIC (F. nucleatum): 4 µg/mL (≈ 12.4 µM)
- Survivors/Total (Escherichia coli Vogel; 3.13 mg/kg po): 0/10
- Survivors/Total (Escherichia coli Vogel; 3.13 mg/kg sc): 1/10
- Survivors/Total (Escherichia coli Vogel; 6.25 mg/kg po): 0/10
- Survivors/Total (Escherichia coli Vogel; 6.25 mg/kg sc): 0/10
- Survivors/Total (Escherichia coli Vogel; 12.5 mg/kg po): 2/10
- Survivors/Total (Escherichia coli Vogel; 12.5 mg/kg sc): 4/10
- Survivors/Total (Escherichia coli Vogel; 25 mg/kg po): 9/10
- Survivors/Total (Escherichia coli Vogel; 25 mg/kg sc): 10/10
- ED50 (Escherichia coli Vogel; po, po): 16.5 mg/kg
- ED50 (Escherichia coli Vogel; sc, sc): 13.5 mg/kg
